Here are results for 18 molecules from patent publication US20260258036A1, “INHIBITORS OF HUMAN ALDOSTERONE SYNTHASE (CYP11B2)” («TARGET MEDICALS» LIMITED LIABILITY COMPANY, priority 2022, published 2026).

In the first assay the target is T1, recombinant CYP11B2 (Homo sapiens, UniProt P19099).
T1 sequence (P19099 25-503): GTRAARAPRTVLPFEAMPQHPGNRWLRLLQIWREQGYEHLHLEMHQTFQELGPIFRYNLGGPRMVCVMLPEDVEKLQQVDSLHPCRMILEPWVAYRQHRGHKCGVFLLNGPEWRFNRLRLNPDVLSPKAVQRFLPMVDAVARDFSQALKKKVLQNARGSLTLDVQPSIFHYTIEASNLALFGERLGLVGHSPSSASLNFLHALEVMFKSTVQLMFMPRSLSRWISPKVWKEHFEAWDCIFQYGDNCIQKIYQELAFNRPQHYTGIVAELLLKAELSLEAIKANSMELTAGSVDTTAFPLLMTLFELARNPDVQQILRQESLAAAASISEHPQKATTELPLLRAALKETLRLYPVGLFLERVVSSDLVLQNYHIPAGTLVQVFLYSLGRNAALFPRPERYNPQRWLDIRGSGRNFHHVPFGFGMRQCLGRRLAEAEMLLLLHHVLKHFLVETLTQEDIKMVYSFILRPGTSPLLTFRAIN
The assay can be described thus: Inhibition of CYP11B2 activity in a reconstructed enzyme system (HPLC with UV detector). It counts as biochemical. Conditions: compounds 1_xx; test compound final concentration ≤2 μM; corticosterone substrate; 30 minutes at 37° C.; read-out: Level of CYP11B2 activity inhibition. How it is done: The authors of the present invention investigated the activity of the compounds according to the invention as inhibitors of CYP11 B2 when analyzed in a reconstructed system containing 0.5 μm recombinant CYP1 1B2, 0.3 μm human adrenodoxin reductase, 2 μm human adrenodoxin, 100 μm corticosterone as a control reaction to detect the formation of a product with using an HPLC system with a UV detector. The test compound is added to the reaction mixture to a final concentration of ≤2 μM. The concentrated protein mixture was diluted with buffer to a final volume of 0.5 ml, pre-incubated for 10 min at 37° C., followed by the addition of the substrate. Reactions are initiated by adding NADPH (nicotinamide adenine dinucleotide phosphate) to a final concentration of 0.25 mM with a regenerating system (glucose-6-phosphate and glucose-6-phosphate dehydrogenase) in 25 mM potassium phosphate buffer, pH 7.4, containing 0.1 mM DTT (dithiothreitol), 0.1% Tween-20.4 mM MgCl2 and incubated at 37° C. After 30 minutes of incubation, the reaction is stopped by adding 5 ml of dichloromethane. The organic phase is isolated by centrifugation, evaporation, dissolution in ethanol and transferred to a vial for HPLC studies. A C18 Luna 100 Å 250×4, 6 mm column was used on an Agilent Technologies 1200 series instrument (USA) with ethanol as the mobile phase.
Activity (a) is calculated as the amount of product in nmol per minute per 1 nmol of CYP.
where k is the correction factor (k=1 is used as the molar extinction coefficients of steroid substrates and products similar at a detection wavelength of 254 nm), As is the peak area of the substrate, cs is the concentration of the substrate, Ap is the peak area of the product, ce is the concentration of CYP (cytochrome P450), t is the reaction time.
The level of inhibition of CYP11 B2 activity is expressed as a percentage, where 0% is defined as no inhibition in reactions without test compound and 100% is absolute inhibition by test compound.
As for `COc1c(C)cc(S(=O)(=O)n2ccc3c(-c4cnc(C)cn4)cncc32)cc1C` [Compound 1_02, 1-((4-methoxy-3,5-dimethylphenyl)sulfonyl)-4-(5-methylpyrazin-2-yl)-1H-pyrrolo[2,3-c]pyridine], the inhibition at 2 µM lay in the range of 50 to 100%.

For `CC(C)Oc1c(F)cc(S(=O)(=O)n2ccc3c(-c4ccccn4)cncc32)cc1F` [Compound 1_06, 1-((3,5-difluoro-4-isopropoxyphenyl)sulfonyl)-4-(pyridin-2-yl)-1H-pyrrolo[2,3-c]pyridine], the inhibition at 2 µM was 50 to 100%.

With `CN1CCN(c2c(F)cc(S(=O)(=O)N3CCc4c(-c5ccccn5)cncc43)cc2F)CC1` [Compound 1_17, 1-((3,5-difluoro-4-(4-methylpiperazin-1-yl)phenyl)sulfonyl)-4-(pyridin-2-yl)-2,3-dihydro-1H-pyrrolo[2,3-c]pyridine], the inhibition at 2 µM was in the range of 50 to 100%.

For `O=S(=O)(c1cc(F)c(N2CCOCC2)c(F)c1)n1ccc2c(-c3ccccn3)cncc21` [Compound 1_10, 4-(2,6-difluoro-4-((4-(pyridin-2-yl)-1H-pyrrolo[2,3-c]pyridin-1-yl)sulfonyl)phenyl)morpholine], the inhibition at 2 µM was in the range of 50 to 100%.

Turning to `Cc1ccc(-c2cncc3c2ccn3S(=O)(=O)c2cc(F)c(N(C)C)c(F)c2)nc1` [Compound 1_33, 2,6-difluoro-N,N-dimethyl-4-((4-(5-methylpyridin-2-yl)-1H-pyrrolo[2,3-c]pyridin-1-yl)sulfonyl)aniline], the inhibition at 2 µM lay within 50 to 100%.

Take `COc1c(C)cc(S(=O)(=O)n2ccc3c(-c4ccc(C)cn4)cncc32)cc1C` [Compound 1_01, 1-(4-methoxy-3,5-dimethylphenyl)sulfonyl-4-(5-methyl-2-pyridyl)pyrrolo[2,3-c]pyridine]: the inhibition at 2 µM fell in the range of 50 to 100%.

Consider `CN1CC2CN(c3c(F)cc(S(=O)(=O)n4ccc5c(-c6ccccn6)cncc54)cc3F)CC2C1` (stereo not drawn) [Compound 1_24, 1-((3,5-difluoro-4-(5-methylhexahydropyrrolo[3,4-c]pyrrol-2(1H)-yl)phenyl)sulfonyl)-4-(pyridin-2-yl)-1H-pyrrolo [2,3-s]pyridine], for which the inhibition at 2 µM was in the range of 20 to 100%.

As to `Nc1c(F)cc(S(=O)(=O)n2ccc3c(-c4ccccn4)cncc32)cc1F` [Compound 1_11, 2,6-difluoro-4-((4-(pyridin-2-yl)-1H-pyrrolo[2,3-c]pyridin-1-yl)sulfonyl)aniline], the inhibition at 2 µM was in the range of 50 to 100%.

With `Cc1cnc(-c2cncc3c2ccn3S(=O)(=O)c2cc(F)c(N)c(F)c2)cn1` [Compound 1_32, 2,6-difluoro-4-((4-(5-methylpyrazin-2-yl)-1H-pyrrolo[2,3-c]pyridin-1-yl)sulfonyl)aniline], the inhibition at 2 µM was 50 to 100%.

Still in this assay, the particulars now being: compounds 2_xx, 3_xx, 4_01; test compound final concentration ≤2 μM; corticosterone substrate; 30 minutes at 37° C.; read-out: Level of CYP11B2 activity inhibition.
As to `CN1CCN(c2c(F)cc(S(=O)(=O)n3ccc4c(-c5ccc(C#N)nn5)cncc43)cc2F)CC1` [Compound 3_10, 6-(1-((3,5-difluoro-4-(4-methylpiperazin-1-yl)phenyl)sulfonyl)-1H-pyrrolo[2,3-c]pyridin-4-yl)pyridazine-3-carbonitrile], the inhibition at 2 µM fell in the range of 35 to 100%.

For the molecule `O=S(=O)(c1cc(F)c(N2CCN(CC3CC3)CC2)c(F)c1)n1ccc2c(-c3ccccn3)cncc21` [Compound 2_02, 1-((4-(4-(cyclopropylmethyl)piperazin-1-yl)-3,5-difluorophenyl)sulfonyl)-4-(pyridin-2-yl)-1H-pyrrolo[2,3-c]pyridine], the inhibition at 2 µM lay in the range of 35 to 100%.

`CN1CCN(c2c(F)cc(S(=O)(=O)n3ccc4c(-c5ccc(C#N)cn5)cncc43)cc2F)CC1` [Compound 3_06, 6-(1-((3,5-difluoro-4-(4-methylpiperazin-1-yl)phenyl)sulfonyl)-1H-pyrrolo[2,3-c]pyridin-4-yl)nicotinonitrile]: the inhibition at 2 µM is 35 to 100%.

For `O=S(=O)(c1cc(F)c(N2CCCNCC2)c(F)c1)n1ccc2c(-c3ccccn3)cncc21` [Compound 3_14, 1-((4-(1,4-diazepan-1-yl)-3,5-difluorophenyl)sulfonyl)-4-(pyridin-2-yl)-1H-pyrrolo[2,3-c]pyridine], the inhibition at 2 µM lay in the range of 35 to 100%.

Turning to `NC1CCN(c2c(F)cc(S(=O)(=O)n3ccc4c(-c5ccccn5)cncc43)cc2F)CC1` [Compound 3_15, 1-(2,6-difluoro-4-((4-(pyridin-2-yl)-1H-pyrrolo[2,3-c]pyridin-1-yl)sulfonyl)phenyl)piperidin-4-amine], the inhibition at 2 µM was in the range of 35 to 100%.

In the case of `N#Cc1ccc(-c2cncc3c2ccn3S(=O)(=O)c2cc(F)c(N3CC4CNCC4C3)c(F)c2)cn1` (stereo not drawn) [Compound 3_28, 5-(1-((3,5-difluoro-4-(hexahydropyrrolo[3,4-c]pyrrol-2(1H)-yl)phenyl)sulfonyl)-1H-pyrrolo[2,3-c]pyridin-4-yl)picolinonitrile], the inhibition at 2 µM fell in the range of 35 to 100%.

As for `O=S(=O)(c1cc(F)c(N2C3CCC2CNC3)c(F)c1)n1ccc2c(-c3ccccn3)cncc21` [Compound 3_26, 1-((4-(3,8-diazabicyclo[3.2.1]octan-8-yl)-3,5-difluorophenyl)sulfonyl)-4-(pyridin-2-yl)-1H-pyrrolo[2,3-c]pyridine], the inhibition at 2 µM was in the range of 35 to 100%.

As to `CC(C)N1CCN(c2c(F)cc(S(=O)(=O)n3ccc4c(-c5ccccn5)cncc43)cc2F)CC1` [Compound 3_11, 1-((3,5-difluoro-4-(4-isopropylpiperazin-1-yl)phenyl)sulfonyl)-4-(pyridin-2-yl)-1H-pyrrolo[2,3-c]pyridine], the inhibition at 2 µM lay in the range of 35 to 100%.

`CNc1cnc(-c2cncc3c2ccn3S(=O)(=O)c2cc(F)c(N3CCN(C)CC3)c(F)c2)nc1` [Compound 3_08, 2-(1-((3,5-difluoro-4-(4-methylpiperazin-1-yl)phenyl)sulfonyl)-1H-pyrrolo[2,3-c]pyridin-4-yl)-N-methylpyrimidin-5-amine]: the inhibition at 2 µM fell in the range of 20 to 100%.
